Data taken from article PMC5736936, “Xylopine Induces Oxidative Stress and Causes G2/M Phase Arrest, Triggering Caspase-Mediated Apoptosis by p53-Independent Pathway in HCT116 Cells” (Oxidative Medicine and Cellular Longevity, 2017).

Columns and labels:
HCT116 cells [1] = test: Nitric oxide production (DAF-FM diacetate); type: cell-based, human; conditions: 1 h
Procedure: Nitric oxide generation was detected with 4-amino-5-methylamino-2′-,7′-difluofluorescein diacetate (DAF-FM diacetate) (Molecular Probes, Eugene, OR, USA). The cells were labeled with 3 μM of DAF-FM diacetate for 60 minutes at 37°C. Following staining cells were washed with saline and incubated for an additional 15 minutes at 37°C to allow for complete deesterification of the intracellular diacatates. Then, the nitric oxide radical was measured by flow cytometry as described above.

[2] = system: PBMC (human peripheral blood mononuclear cells); test: Cytotoxic activity, alamarBlue assay, 72 h (noncancer cells); type: cell-based; conditions: Homo sapiens
Text: (§1) MCF7 (human breast carcinoma), HCT116 (human colon carcinoma), HepG2 (human hepatocellular carcinoma), SCC-9 (human oral squamous cell carcinoma), HSC-3 (human oral squamous cell carcinoma), HL-60 (human promyelocytic leukemia), K-562 (human chronic myelogenous leukemia), B16-F10 (murine melanoma), MRC-5 (human lung fibroblast), WT SV40 MEF (wild-type immortalized mouse embryonic fibroblast), and BAD KO SV40 MEF (BAD gene knockout immortalized mouse embryonic fibroblast) cell lines were obtained from the American Type Culture Collection (ATCC, Manassas, VA, USA). Cells were cultured in complete medium with appropriate supplements as recommended by ATCC. All cell lines were tested for mycoplasma using the Mycoplasma Stain Kit (Sigma-Aldrich) to validate the use of cells free from contamination. Primary cell culture of peripheral blood mononuclear cells (PBMC) was obtained by standard Ficoll density protocol. The Research Ethics Committee of the Oswaldo Cruz Foundation (Salvador, BA, Brazil) approved the experimental protocol (number 031019/2013). Cell viability was examined using trypan blue exclusion assay for all experiments.
(§2) Cell viability was quantified using the alamarBlue assay according to Ahmed et al.. Cells were inserted in 96-well plates for all experiments (7 × 10^4 cells/mL for adherent cells or 3 × 10^5 cells/mL for suspended cells in 100 μL of medium). After 24 h, xylopine was dissolved in dimethyl sulfoxide (DMSO) and added to each well and incubated for 72 h. […] Four (for cell lines) or 24 h (for PBMCs) before the end of incubation, 20 μL of a stock solution (0.312 mg/mL) of the alamarBlue (resazurin, Sigma-Aldrich Co., Saint Louis, MO, USA) was added to each well. Absorbance at 570 nm and 600 nm was measured using the SpectraMax 190 Microplate Reader (Molecular Devices, Sunnyvale, CA, USA), and the drug effect was quantified as the percentage of control absorbance.

[3] = system: MRC5 (human lung fibroblast); test: as above; type: cell-based; conditions: Homo sapiens
Text: as §1, §2

[4] = system: HepG2 (human hepatocellular carcinoma); test: Cytotoxic activity, alamarBlue assay, 72 h; type: cell-based
Text: as §1, §2

[5] = system: MCF7 (human breast carcinoma); test: Cytotoxic activity, alamarBlue assay, 72 h; type: cell-based;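 on Selectivity index: SI is noncancer IC50 (MRC-5 or PBMC) divided by cancer cell IC50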
Text: as §1, §2

[6] = system: HCT116 (human colon carcinoma); test: Cytotoxic activity, alamarBlue assay, 72 h; type: cell-based;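 on Selectivity index: SI is noncancer IC50 (MRC-5 or PBMC) divided by cancer cell IC50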
Text: as §1, §2

[7] = system: SCC9 (human oral squamous cell carcinoma); test: Cytotoxic activity, alamarBlue assay, 72 h; type: cell-based
Text: as §1, §2

[8] = system: HSC3 (human oral squamous cell carcinoma); test: Cytotoxic activity, alamarBlue assay, 72 h; type: cell-based
Text: as §1, §2

[9] = system: K562 (human chronic myelogenous leukemia); test: Cytotoxic activity, alamarBlue assay, 72 h; type: cell-based;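 on Selectivity index: SI is noncancer IC50 (MRC-5 or PBMC) divided by cancer cell IC50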
Text: as §1, §2

[10] = system: HL-60 (human promyelocytic leukemia); test: Cytotoxic activity, alamarBlue assay, 72 h; type: cell-based;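 on Selectivity index: SI is noncancer IC50 (MRC-5 or PBMC) divided by cancer cell IC50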
Text: as §1, §2

[11] = system: B16-F10 (murine melanoma); test: Cytotoxic activity, alamarBlue assay, 72 h; type: cell-based
Text: as §1, §2

calf thymus DNA (ctDNA) = test: DNA intercalation assay (ethidium bromide displacement); type: binding; conditions: 10 or 20 μM xylopine, 15 μg/mL ctDNA, 1.5 μM ethidium bromide
Procedure: DNA intercalation was assessed by examining the ability of xylopine to displace ethidium bromide from calf thymus DNA (ctDNA, Sigma-Aldrich Co.). The assay was conducted in 96-well plates and contained 15 μg/mL ctDNA, 1.5 μM ethidium bromide, and 10 or 20 μM xylopine in 100 μL saline solution. […] Fluorescence was measured using excitation and emission wavelengths of 320 and 600 nm, respectively.

[12] = system: cancer multicellular spheroids formed from HCT116 cells; test: 3D multicellular spheroids culture, alamarBlue assay, 72 h; type: cell-based, human
Procedure: HCT116 cells were cultivated in three-dimensional (3D) multicellular spheroids. Briefly, 100 μL of a solution of cells (0.5 × 10^6 cells/mL) was inserted in 96-well plates with a cell-repellent surface (Greiner Bio-One, Kremsmünster, Austria) and cultured in complete medium plus 3% Matrigel (BD Biosciences, San Jose, CA, USA). Spheroids with stable structures had formed after three days. Then, the spheroids were exposed to a range of drug concentrations for 72 h, after which the cell viability was quantified by alamarBlue assay as described above.

HCT116 cells [13] = test: Annexin V-FITC/PI staining assay (flow cytometry), with protection assays; type: cell-based, human
Procedure: For apoptosis detection, we used the FITC Annexin V Apoptosis Detection Kit I (BD Biosciences), and the analysis was performed according to the manufacturer's instructions. The cell fluorescence was determined by flow cytometry as described above. The protection assays using a caspase-3 inhibitor (Z-DEVD-FMK, BD Biosciences), a p53 inhibitor (cyclic pifithrin-α, Cayman Chemical, Ann Arbor, MI, USA), and an antioxidant N-acetyl-L-cysteine (NAC, Sigma-Aldrich Co.) were performed. In brief, the cells were pretreated for 2 h with 50 μM Z-DEVD-FMK and 10 μM cyclic pifithrin-α and for 1 h with 5 mM NAC, followed by incubation with 14 μM xylopine for 48 h. The cells were then trypsinized and the FITC Annexin V Apoptosis Detection assay was conducted as described above.

Q: For `COc1ccc2c(c1)C[C@@H]1NCCc3cc4c(c-2c31)OCO4` [XYL, xylopine], which nitric oxide level (HCT116 cells [1]) is on record?
A: increases nitric oxide

Q: And the IC50 [2]?
A: 18.3 µM

Q: What about the IC50 [3] of the same compound?
A: 24.1 µM

Q: And the IC50 ([4]; Homo sapiens, HepG2, alamarBlue, 72 h)?
A: 9.4 µM

Q: And the Selectivity index ([4]; IC50(MRC5)/IC50(HepG2))?
A: 2.6

Q: What about the Selectivity index ([4]; IC50(PBMC)/IC50(HepG2)) of the same compound?
A: 2

Q: What about the IC50 ([5]; Homo sapiens, MCF7, alamarBlue, 72 h) of the same compound?
A: 12 µM

Q: And the Selectivity index ([5]; IC50(MRC5)/IC50(MCF7))?
A: 2

Q: And the Selectivity index ([5]; IC50(PBMC)/IC50(MCF7))?
A: 1.5

Q: What about the IC50 ([6]; Homo sapiens, HCT-116, HCT116, alamarBlue, 72 h) of the same compound?
A: 6.4 µM

Q: And the Selectivity index ([6]; IC50(MRC5)/IC50(HCT116))?
A: 3.8

Q: What about the Selectivity index ([6]; IC50(PBMC)/IC50(HCT116)) of the same compound?
A: 2.9

Q: And the IC50 ([7]; Homo sapiens, SCC-9, SCC9, alamarBlue, 72 h)?
A: 26.6 µM

Q: What about the Selectivity index ([7]; IC50(MRC5)/IC50(SCC-9)) of the same compound?
A: 0.9

Q: What about the Selectivity index ([7]; IC50(PBMC)/IC50(SCC-9)) of the same compound?
A: 0.7

Q: What about the IC50 ([8]; Homo sapiens, HSC-3, HSC3, alamarBlue, 72 h) of the same compound?
A: 15.7 µM

Q: What about the Selectivity index ([8]; IC50(MRC5)/IC50(HSC-3)) of the same compound?
A: 1.5

Q: And the Selectivity index ([8]; IC50(PBMC)/IC50(HSC-3))?
A: 1.2

Q: And the IC50 ([9]; Homo sapiens, K562, alamarBlue, 72 h)?
A: 7.8 µM

Q: And the Selectivity index ([9]; IC50(MRC5)/IC50(K-562))?
A: 3.1

Q: What about the Selectivity index ([9]; IC50(PBMC)/IC50(K-562)) of the same compound?
A: 2.4

Q: And the IC50 ([10]; Homo sapiens, HL-60, alamarBlue, 72 h)?
A: 18.5 µM

Q: What about the Selectivity index ([10]; IC50(MRC5)/IC50(HL-60)) of the same compound?
A: 1.3

Q: And the Selectivity index ([10]; IC50(PBMC)/IC50(HL-60))?
A: 1

Q: And the Selectivity index ([11]; IC50(MRC5)/IC50(B16-F10))?
A: 2.5

Q: What about the Selectivity index ([11]; IC50(PBMC)/IC50(B16-F10)) of the same compound?
A: 1.9

Q: And the IC50 ([11]; Mus musculus, B16-F10, alamarBlue, 72 h)?
A: 9.6 µM

Q: And the “displacement of ethidium bromide from ctDNA (fluorescence intensity)” value (calf thymus DNA (ctDNA))?
A: not able to decrease the ethidium bromide fluorescence

Q: And the morphology of spheroids ([12]; 3D spheroids of HCT116, light microscopy)?
A: morphological alterations that indicate drug permeability and cytotoxicity in the 3D culture

Q: And the IC50 ([12]; Homo sapiens, HCT-116, 3D spheroids of HCT116, alamarBlue, 72 h)?
A: 24.6 µM

Q: And the “xylopine-induced apoptosis on cotreatment with caspase-3 inhibitor (Z-DEVD-FMK)” value (HCT116 cells [13]; HCT116, 50 μM Z-DEVD-FMK 2 h, then 14 μM xylopine 48 h)?
A: prevented

Q: And the “xylopine-induced increase of cell death by apoptosis on cotreatment with NAC” value (HCT116 cells [13]; HCT116, 5 mM NAC 1 h, then 14 μM xylopine 48 h)?
A: prevented

Q: And the “early and late apoptosis” value (HCT116 cells [13]; HCT116, annexin V/PI, 24 and 48 h, p < 0.05)?
A: significantly increased

Q: And the necrotic cells (HCT116 cells [13]; HCT116, annexin V/PI, 48 h, p < 0.05)?
A: significant increase
